This is an account of results in patent US11590116B2 (THERAVANCE BIOPHARMA R&D IP, LLC, priority 2019, dated 2023).

For assay [1], the system named is TGF-β-stimulated SMAD3 phosphorylation in BEAS-2B cells. Briefly: Cellular ALK5 potency assay, inhibition of TGF-β stimulated pSMAD3 formation in BEAS-2B cells. It counts as cell-based. The note with it: Homo sapiens; inhibition of TGF-β stimulated pSMAD3 formation, BEAS-2B cells; read-out: BEAS2B pIC50 (converted). The method, boiled down:
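AlphaLISA pSMAD3 read-out, beads incubated overnight. Human BEAS-2B cells: 1 h compound preincubation (37 °C, 5% CO2), then 30 min TGF-β at 10 ng/mL final, immediate lysis. Values are pIC50 relative to stimulated, compound-free baseline.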

Assay [2] has as its target T1, recombinant human ALK5 (TGF-βR1) protein (Homo sapiens, UniProt P36897).
T1 construct: purchased Life Technologies PR9075A
T1 sequence (P36897 34-503): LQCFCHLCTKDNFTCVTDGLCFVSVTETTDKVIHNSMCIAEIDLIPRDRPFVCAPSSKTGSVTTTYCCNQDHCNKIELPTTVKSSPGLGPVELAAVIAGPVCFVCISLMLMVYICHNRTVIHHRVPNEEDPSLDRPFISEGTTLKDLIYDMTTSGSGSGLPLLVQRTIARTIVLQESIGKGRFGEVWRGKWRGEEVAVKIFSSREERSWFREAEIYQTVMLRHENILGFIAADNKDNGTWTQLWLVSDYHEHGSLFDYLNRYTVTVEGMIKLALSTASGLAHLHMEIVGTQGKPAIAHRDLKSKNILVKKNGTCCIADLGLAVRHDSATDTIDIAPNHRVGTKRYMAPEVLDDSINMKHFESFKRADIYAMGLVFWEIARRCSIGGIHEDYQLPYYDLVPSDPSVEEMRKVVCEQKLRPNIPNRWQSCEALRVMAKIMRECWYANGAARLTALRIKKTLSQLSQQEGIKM
Briefly: Biochemical ALK5 (TGF-βR1) assay to measure pKi (LANCE Ultra ULight kinase assay). The note with it: apparent pKi from pIC50 by Cheng-Prusoff, read-out: ALK5 pKi (converted). The method, boiled down: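 Compounds (10 μM to 25 pM) preincubated 60 minutes at room temperature with enzyme, then reaction run 60 minutes at 37° C with ATP added as 125 μM (5× final). Stopped with EDTA plus Eu-anti-phospho-Topoisomerase 2-alpha (Thr1342) antibody, TR-FRET read at 665 nm; pIC50 converted to pKi via Cheng-Prusoff.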
Background: TR-FRET usually uses a lanthanide donor and a delayed reading to cut background.

Where only a bound is given, the exact number is not on record here.

`Cc1cccc(-c2[nH]cnc2-c2ccc3ncc(-c4cc(C(=O)O[C@H]5CCNC5)ccn4)cc3c2)n1` [Compound 1060, [(3S)-pyrrolidin-3-yl] 2-[6-[5-(6-methyl-2-pyridyl)-1H-imidazol-4-yl]-3-quinolyl]pyridine-4-carboxylate]: the IC50 in assay [1] is 25.1 to 158 nM. Further, in assay [2], the Ki was 0.0398 to 0.316 nM.

With `Cc1cccc(-c2[nH]ncc2-c2ccc3ncc(C(=O)OCCN4CCN(C(C)C)CC4)cc3n2)n1` [Compound 389, 2-(4-isopropylpiperazin-1-yl)ethyl 6-[5-(6-methyl-2-pyridyl)-1H-pyrazol-4-yl]-1,5-naphthyridine-3-carboxylate], the IC50 in assay [1] was 25.1 to 158 nM. For the same compound, the Ki in assay [2] was 0.0398 to 0.316 nM.

`Cc1cccc(-c2[nH]cnc2-c2ccc3ncc(C4=CCC(NCC5CCC(=O)O5)CC4)cc3c2)n1` (stereo not shown) [Compound 590, 5-[[[4-[6-[5-(6-methyl-2-pyridyl)-1H-imidazol-4-yl]-3-quinolyl]cyclohex-3-en-1-yl]amino]methyl]tetrahydrofuran-2-one]: the IC50 in assay [1] was 25.1 to 158 nM. Also, the Ki in assay [2] was 0.0398 to 0.316 nM.

For the compound `Cc1nc(-c2n[nH]cc2-c2ccc3ncc(-c4cnc5n4CCCN5)cc3n2)ccc1F` [Compound 123, 2-[3-(5-fluoro-6-methyl-2-pyridyl)-1H-pyrazol-4-yl]-7-(5,6,7,8-tetrahydroimidazo[1,2-a]pyrimidin-3-yl)-1,5-naphthyridine], the IC50 in assay [1] was 25.1 to 158 nM. Moreover, the Ki in assay [2] is 0.0398 to 0.316 nM.

Consider `Cc1cccc(-c2[nH]cnc2-c2ccc3ncc(C(=O)OCCCN4CCCC4)cc3c2)n1` [Compound 738, 3-pyrrolidin-1-ylpropyl 6-[5-(6-methyl-2-pyridyl)-1H-imidazol-4-yl]quinoline-3-carboxylate], for which the IC50 in assay [1] is 25.1 to 158 nM. Besides, in assay [2], the Ki is 0.0398 to 0.316 nM.

On to `Cc1cccc(-c2n[nH]cc2-c2ccc3ncc(NCC(=O)N4CCOCC4)cc3n2)n1` [Compound 90, 2-[[6-[3-(6-methyl-2-pyridyl)-1H-pyrazol-4-yl]-1,5-naphthyridin-3-yl]amino]-1-morpholino-ethanone], for which the IC50 in assay [1] was 25.1 to 158 nM. Further, the Ki in assay [2] was 0.398 to 3.16 nM.

In the case of `Cc1nc(-c2nc3ccccn3c2-c2ccc3ncc(NCCN4CCN(C(C)C)CC4)cc3n2)ccc1F` [Compound 290, 6-[2-(5-fluoro-6-methyl-2-pyridyl)imidazo[1,2-a]pyridin-3-yl]-N-[2-(4-isopropylpiperazin-1-yl)ethyl]-1,5-naphthyridin-3-amine], in assay [1], the IC50 was 25.1 to 158 nM. The Ki in assay [2] was 0.0398 to 0.316 nM.

For the compound `Cc1cccc(-c2n[nH]cc2-c2ccc3ncc(-c4ccnc(C#N)c4)cc3n2)n1` [Compound 9, 4-[6-[3-(6-methyl-2-pyridyl)-1H-pyrazol-4-yl]-1,5-naphthyridin-3-yl]pyridine-2-carbonitrile], the IC50 in assay [1] was less than 20 nM. In addition, the Ki in assay [2] was less than 0.0316 nM.

For the compound `Cc1cccc(-c2n[nH]c(NCCN3CCOCC3)c2-c2ccc3ncc(-c4ccncc4)cc3n2)n1` [Compound 468, 3-(6-methylpyridin-2-yl)-N-(2-morpholinoethyl)-4-(7-(pyridin-4-yl)-1,5-naphthyridin-2-yl)-1H-pyrazol-5-amine], the IC50 in assay [1] is 200 to 1260 nM. Moreover, in assay [2], the Ki is 0.0398 to 0.316 nM.

Turning to `COc1ncccc1-c1cnc2ccc(-c3c[nH]nc3-c3cccc(C)n3)nc2c1` [Compound 61, 7-(2-methoxy-3-pyridyl)-2-[3-(6-methyl-2-pyridyl)-1H-pyrazol-4-yl]-1,5-naphthyridine], in assay [1], the IC50 was 25.1 to 158 nM. For the same compound, the Ki in assay [2] was 0.0398 to 0.316 nM.

With `Cc1cccc(-c2[nH]cnc2-c2ccc3ncc(NCCN4CCN(C(C)C)CC4)cc3c2)n1` [Compound 467, N-[2-(4-isopropylpiperazin-1-yl)ethyl]-6-[5-(6-methyl-2-pyridyl)-1H-imidazol-4-yl]quinolin-3-amine], the IC50 in assay [1] is 25.1 to 158 nM. In addition, the Ki in assay [2] is 0.0398 to 0.316 nM.

Regarding `CCOC(=O)CCc1ccnc2ccc(-c3c[nH]nc3-c3cccc(C)n3)nc12` [Compound 814, ethyl 3-[6-[3-(6-methyl-2-pyridyl)-1H-pyrazol-4-yl]-1,5-naphthyridin-4-yl]propanoate], the IC50 in assay [1] was 25.1 to 158 nM. Further, the Ki in assay [2] was 0.0398 to 0.316 nM.

For the compound `Cc1cccc(-c2[nH]cnc2-c2ccc3ncc(-c4nc(C5=CCNC5)cs4)cc3c2)n1` [Compound 1043, 4-(2,5-dihydro-1H-pyrrol-3-yl)-2-[6-[5-(6-methyl-2-pyridyl)-1H-imidazol-4-yl]-3-quinolyl]thiazole], the IC50 in assay [1] is less than 20 nM. Also, the Ki in assay [2] was 0.0398 to 0.316 nM.

Consider `Cc1cccc(-c2[nH]cnc2-c2ccc3ncc(C4=CCC(C(=O)O[C@@H]5CCNC5)CC4)cc3c2)n1` (stereo partly drawn) [Compound 49, [(3R)-pyrrolidin-3-yl] 4-[6-[5-(6-methyl-2-pyridyl)-1H-imidazol-4-yl]-3-quinolyl]cyclohex-3-ene-1-carboxylate], for which the IC50 in assay [1] is 25.1 to 158 nM. Further, in assay [2], the Ki was 0.0398 to 0.316 nM.

As to `Cc1cccc(-c2[nH]cnc2-c2ccc3ncc(NC(=O)C4CCNC4)cc3c2)n1` (stereo not shown) [Compound 618, N-[6-[5-(6-methyl-2-pyridyl)-1H-imidazol-4-yl]-3-quinolyl]pyrrolidine-3-carboxamide], in assay [1], the IC50 was 200 to 1260 nM. In addition, the Ki in assay [2] was 0.0398 to 0.316 nM.

As to `Cc1cccc(-c2n[nH]cc2-c2ccc3ncc(N4CCCN(CC(C)C)CC4)cc3n2)n1` [Compound 320, 7-(4-isobutyl-1,4-diazepan-1-yl)-2-[3-(6-methyl-2-pyridyl)-1H-pyrazol-4-yl]-1,5-naphthyridine], the IC50 in assay [1] was 200 to 1260 nM. Further, the Ki in assay [2] was 0.0398 to 0.316 nM.

On to `Cc1cccc(-c2[nH]cnc2-c2ccc3ncc(-c4ccc(C(=O)OCCN5CCC[C@H](N)C5)cn4)cc3c2)n1` [Compound 1214, 2-[(3S)-3-amino-1-piperidyl]ethyl 6-[6-[5-(6-methyl-2-pyridyl)-1H-imidazol-4-yl]-3-quinolyl]pyridine-3-carboxylate], for which the IC50 in assay [1] was 25.1 to 158 nM. The Ki in assay [2] is 0.0398 to 0.316 nM.

On to `Cc1cccc(-c2nn3cc(Cl)ccc3c2-c2ccc3ncc(-c4cn[nH]c4)cc3n2)n1` [Compound 330, 2-[6-chloro-2-(6-methyl-2-pyridyl)pyrazolo[1,5-a]pyridin-3-yl]-7-(1H-pyrazol-4-yl)-1,5-naphthyridine], for which the IC50 in assay [1] is 25.1 to 158 nM. In addition, in assay [2], the Ki is 0.0398 to 0.316 nM.

As for `Cc1nc(-c2n[nH]cc2-c2ccc3ncc(-c4[nH]nc5c4CCN5)cc3n2)ccc1F` [Compound 515, 2-[3-(5-fluoro-6-methyl-2-pyridyl)-1H-pyrazol-4-yl]-7-(2,4,5,6-tetrahydropyrrolo[2,3-c]pyrazol-3-yl)-1,5-naphthyridine], in assay [1], the IC50 is 25.1 to 158 nM. For the same compound, the Ki in assay [2] was less than 0.0316 nM.

Take `Cc1cccc(-c2[nH]cnc2-c2ccc3ncc(NC4CNC4)cc3c2)n1` [Compound 50, N-(azetidin-3-yl)-6-[5-(6-methyl-2-pyridyl)-1H-imidazol-4-yl]quinolin-3-amine]: the IC50 in assay [1] was 25.1 to 158 nM. Also, the Ki in assay [2] is 0.0398 to 0.316 nM.

For the compound `Cc1nc(-c2n[nH]cc2-c2ccc3ncc(N4CCC(N5CCN(C)CC5)CC4)cc3c2)ccc1F` [Compound 93, 6-[3-(5-fluoro-6-methyl-2-pyridyl)-1H-pyrazol-4-yl]-3-[4-(4-methylpiperazin-1-yl)-1-piperidyl]quinoline], the IC50 in assay [1] is 25.1 to 158 nM. For the same compound, in assay [2], the Ki was less than 0.0316 nM.

As to `Cc1cccc(-c2n[nH]cc2-c2ccc3ncc(NCC4CN5CCN4CC5)cc3n2)n1` (stereo not shown) [Compound 566, N-(1,4-diazabicyclo[2.2.2]octan-2-ylmethyl)-6-[3-(6-methyl-2-pyridyl)-1H-pyrazol-4-yl]-1,5-naphthyridin-3-amine], the IC50 in assay [1] was 25.1 to 158 nM. For the same compound, the Ki in assay [2] is 0.0398 to 0.316 nM.

`Cc1cccc(-c2nnn(C)c2-c2ccc3ncc(N4CCNCC4)cc3c2)n1` [Compound 86, 6-[3-methyl-5-(6-methyl-2-pyridyl)triazol-4-yl]-3-piperazin-1-yl-quinoline]: the IC50 in assay [1] was 25.1 to 158 nM. Further, the Ki in assay [2] was 0.398 to 3.16 nM.

For `CNCCN1CCCN(c2cnc3ccc(-c4c[nH]nc4-c4cccc(C)n4)nc3c2)CC1` [Compound 311, N-methyl-2-[4-[6-[3-(6-methyl-2-pyridyl)-1H-pyrazol-4-yl]-1,5-naphthyridin-3-yl]-1,4-diazepan-1-yl]ethanamine], in assay [1], the IC50 was 200 to 1260 nM. Also, the Ki in assay [2] was 0.0398 to 0.316 nM.

Regarding `Cc1cccc(-c2[nH]cnc2-c2ccc3ncc(-c4cnc(C(=O)O[C@@H]5CCNC5)nc4)cc3c2)n1` [Compound 1059, [(3R)-pyrrolidin-3-yl] 5-[6-[5-(6-methyl-2-pyridyl)-1H-imidazol-4-yl]-3-quinolyl]pyrimidine-2-carboxylate], the IC50 in assay [1] was 200 to 1260 nM. For the same compound, the Ki in assay [2] was 0.0398 to 0.316 nM.

For `Cc1cccc(-c2[nH]cnc2-c2ccc3ncc(-c4ncc(C(=O)O[C@H]5CCNC5)cn4)cc3c2)n1` [Compound 1158, [(3S)-pyrrolidin-3-yl] 2-[6-[5-(6-methyl-2-pyridyl)-1H-imidazol-4-yl]-3-quinolyl]pyrimidine-5-carboxylate], in assay [1], the IC50 was 25.1 to 158 nM. Also, the Ki in assay [2] was 0.0398 to 0.316 nM.
